# Data: patent publication US9265268B2, “Method of handling bananas” (priority 2009, dated 2016)
# Key:
# bananas [1] = assay: Example US-4: placement into MAP after exposure to 1-MCP; format: in vivo, Musa; conditions: 1000 ppb, Day #8
# From the text: Bananas were harvested and shipped to Ephrata, Pa. as in Example US-1 above. The bananas were also ripened as in Example US-1, except that the bananas remained in the bags in which they were shipped (poly liners) throughout the ripening process. Some of the poly liners were exposed to 1-MCP (1000 ppb) as in Example US-1 above, while others were not. Immediately after the conclusion of the exposure to 1-MCP, bananas were removed from the poly liners, divided into bunches. Some bunches had approximately of 1.4 kg (3 lb) and were placed into T-bags as described above. Other bunches were approximately 18 kg (40 lb) and were placed into MAP type D-40 as described above, using standard layering technique that interposes layers of the bag in between layers of bananas. Then the bananas were stored and evaluated as in Example US-1. Also, the bananas were eaten, and the firmness of the pulp was evaluated along with the overall quality of the eating experience.
# bananas [2] = assay: Example 2A: evaluation process A (4 days post-MCP in bag at 14° C., then 7 days at approx. 22° C.); format: in vivo, Musa; conditions: for Color Stage (mean) / Sugar Spots (mean %): 4 days in bag at 14° C., then 7 days at approx. 22° C.
# From the text: The color of banana peels is rated according to a seven stage rating scale: stage 1 (dark green); stage 2 (all light green); stage 3 (half green and half yellow); stage 4 (more yellow than green); stage 5 (green tips and necks); stage 6 (all yellow; maybe light green necks, no green tips); stage 7 (yellow flecked with brown). Consumers generally prefer to eat bananas in stage 5 or stage 6.
# Bananas were harvested at 13 weeks of age. Fruit bunches were separated into hands, then washed, and excess latex was removed in chlorinated water tanks using standard commercial practices. The washed hands of bananas were further broken into clusters and treated with fungicide. Clusters were placed into plastic bags; each bag held approximately 1.4 kg (3 lbs) of bananas. The bananas remained in these bags until they were removed for evaluation (see below).
# The plastic bags were either T bags or were modified-atmosphere bags (“MAP” bags). The T bags (also called “PE bags” herein) were typical of bags normally used in commerce for bananas. The bags were then placed into cartons. Each carton held 13 bags. Each carton either held MAP bags only or else held PE bags only. 20 cartons of MAP bags and 20 cartons of PE bags were prepared.
# The cartons were placed in a refrigerated truck and transported to a storage facility. The distance from harvest to storage was approximately 100 km. The temperature in the refrigerated truck was 14 to 18° C. To simulate the effect of shipping over long distances, the cartons were placed in conventional cold storage room at 14° C. for two weeks. In storage, the cartons were placed so that air could circulate between and around each carton.
# After the storage period, the thermostat of the holding room was raised to 18° C., and no further action was taken until the holding room was at 18° C. for 12 hours. Bananas were ripened using a 5-day schedule, as follows. The temperatures shown are pulp temperatures; if necessary, the thermostat was lowered so that pulp temperature remained at the desired temperature despite any respiration that may be taking place in the bananas.
# On day 5 at approximately 4 pm, the cartons were divided in to seven groups: one untreated control (“UTC”) group (6 cartons) and six treatment groups. Each group had equal number of PE cartons and MAP cartons. The six treatment groups were as follows:
# UTC cartons were placed in a shed that had good ventilation. The remaining cartons remained in the holding room. Four airtight tents were erected in the holding room. Each tent held all the cartons for one of the treatment groups PE-3-C, PE-10-C, MAP-3, and MAP-10.
# At day 5 at approximately 4 pm, the bananas had reached color stage 2.5 to 3.5. Treatment groups PE-3-C, PE-10-C, MAP-3, and MAP-10 were then exposed to 1-MCP overnight at the concentrations shown above.
# Some of the bananas from each group described in Example 2 were evaluated by process “A” as follows: After treatment groups PE-3-C, PE-10-C, MAP-3, and MAP-10 received exposure to 1-MCP, the bananas remained in their bags in the holding room at 14° C. for 4 days; then the bananas were removed from the bags and stored at approximately 22° C. for 7 days; then the bananas were evaluated.
# [3] = MAP-10: MAP bag, 1000 ppb 1-MCP
# [4] = PE-10-C: PE bag, 1000 ppb 1-MCP
smiles,measurement,setting,value
"CC1=CC1 [1-MCP, 1-methylcyclopropene]",Average color stage,bananas [1]; 1-MCP only (T-bag),4.71
same,Average sugar spot rating,bananas [1]; 1-MCP only (T-bag),3
same,eating experience,bananas [1]; 1-MCP only (T-bag),mediocre
same,pulp,bananas [1]; 1-MCP only (T-bag),soft
same,Average color stage,bananas [1]; MAP (type D-40) and 1-MCP,4.42
same,Average sugar spot rating,bananas [1]; MAP (type D-40) and 1-MCP,1
same,eating experience,bananas [1]; MAP (type D-40) and 1-MCP,excellent
same,pulp,bananas [1]; MAP (type D-40) and 1-MCP,firm
same,Comments (additional observations),"bananas [2]; MAP-3: MAP bag, 300 ppb 1-MCP",Fruit with excellent bright yellow color. Only high
same,Delay in sugar spot development longer than MAP-0,"bananas [2]; MAP-3: MAP bag, 300 ppb 1-MCP",at least three
same,Color Stage (mean),"bananas [2]; MAP-3: MAP bag, 300 ppb 1-MCP",6.3
same,Sugar Spots (mean %),"bananas [2]; MAP-3: MAP bag, 300 ppb 1-MCP",3%
same,Comments (additional observations),bananas [2]; [3],"Almost all fruit was at the right color for sale,"
same,Delay in sugar spot development longer than MAP-0,bananas [2]; [3],at least three
same,Color Stage (mean),bananas [2]; [3],6.1
same,Sugar Spots (mean %),bananas [2]; [3],2%
same,Comments (additional observations),"bananas [2]; PE-3-C: PE bag, 300 ppb 1-MCP",Some fruit was in a good color stage. However most
same,Color Stage (mean),"bananas [2]; PE-3-C: PE bag, 300 ppb 1-MCP",6.8
same,Sugar Spots (mean %),"bananas [2]; PE-3-C: PE bag, 300 ppb 1-MCP",35%
same,Comments (additional observations),bananas [2]; [4],Some fruit was in a good color stage. However most
same,Color Stage (mean),bananas [2]; [4],6.9
same,Sugar Spots (mean %),bananas [2]; [4],73%
